# Assays:
# U-87 MG cells = experiment: Cytotoxicity of DOX against U-87 MG cells; format: cell-based, human; conditions: 2 μM of DOX
# Procedure: After another 24 hr incubation, 20 μl of a 5 mg/ml MTT solution was added to each well. The cells were incubated for 3 hr and the medium was then replaced by 200 μl of DMSO. After 30 min incubation, the plate was read using Synergy H1 with an absorbance wavelength of 590 nm. The results were normalized to readings from a set of wells with cells treated with no DOX, which represented 100% survival. Percent cell death was defined as 1-percent survival.
# A similar procedure was used when testing the cytoxicity of DOX against U-87 MG, a human glioblastoma cell line. However, instead of previously collected DOX solution, DOX solutions at desired concentrations were made fresh for this assay.
# [1] = Surface plasmon resonance affinity between DOX and γ-CD; format: binding; conditions: HBS-N buffer pH 7.4
# Procedure: (§1) Surface plasmon resonance (SPR) spectroscopy was performed on Biacore ×100 to characterize the affinity between DOX and β- and γ-CD. 6-NH2-β- and γ-CD monomers were immobilized onto CM5 sensor chips using amine-coupling chemistry. To optimize immobilization conditions, pH scouting was performed via suspending 0.1 mM of 6-NH2-β- and γ-CD monomers in various pH buffers (borate 8.5, HBS-N 7.4, PBS 7.4, acetate 5) and injecting the suspensions over the sensor chip surface. The carboxylic groups on the sensor chip surface were activated via n injection of 0.4 M EDC/0.1 M NHS. Surface immobilization in flow cell 2 proceeded with an injection of 0.1 mM of 6-amino-6-deoxy-β- or γ-CD monomers suspended in the previously determined optimal buffer, borate 8.5. Blank immobilization was performed in flow cell 1, which was used as a reference flow cell. Finally, unreacted reaction sites in both flow cells were inactivated by an injection of 1 M ethanolamine (pH 8.5). All injections were performed at […] for 7 min.
# (§2) Injections of 50 mM sodium hydroxide was used to wash off any bound DOX and regenerate the sensor chip surface in between sample injections. Successful regeneration was confirmed by examining the baseline signal prior to each injection and that after regeneration. […]
# [2] = Fluorometry characterization of DOX and CD affinity (γ-CD); format: binding; conditions: cell culture medium, 37° C.
# Procedure: (§3) When DOX, a fluorescent compound, forms an inclusion complex with CD, the fluorescent signal is enhanced (1) due to diminished intermolecular quenching. Increasing the amount of β- and γ-CD monomers (0 mM-16 mM) were added to a constant concentration of DOX in cell culture medium at 37° C. (n=3). Aliquots were taken for fluorescence measurements (Synergy H1) with an excitation and emission wavelength of 498 nm and 590 nm, respectively. Based on a modified Benesi-Hildebrand equation, nonlinear regression analysis was performed in MATLAB to estimate the association constants (Ka).
# [3] = Surface plasmon resonance affinity between DOX and β-CD; format: binding; conditions: HBS-N buffer pH 7.4
# Procedure: as §1, §2
# [4] = Fluorometry characterization of DOX and CD affinity (β-CD); format: binding; conditions: cell culture medium, 37° C.
# Procedure: as §3
smiles,measurement,setting,value
"COc1cccc2c1C(=O)c1c(O)c3c(c(O)c1C2=O)C[C@@](O)(C(=O)CO)C[C@@H]3O[C@H]1C[C@H](N)[C@H](O)[C@H](C)O1 [DOX, doxorubicin]",U-87 MG cells killed,U-87 MG cells,~20%
same,Association Constant Ka γ-CD · DOX,[1],490 ± 7 M⁻¹
same,Association Constant Ka γ-CD · DOX,[2],264 ± 20 M⁻¹
same,Association Constant Ka β-CD · DOX,[3],205 ± 5 M⁻¹
same,Association Constant Ka β-CD · DOX,[4],153 ± 15 M⁻¹

# — patent publication US9642920B2, “Therapeutic agent delivery system and method” (Case Western Reserve University, priority 2009, dated 2017)
